Experimental data taken from PMC5540273, “Progress towards a public chemogenomic set for protein kinases and a call for contributions” (PLoS ONE, 2017).

Key:
Test in all cases: KINOMEscan competition binding
[1] = target: LCK (Homo sapiens, UniProt P06239); settings: read-out: %Inh LCK
[2] = target: T1, IKK-epsilon (Homo sapiens, UniProt Q14164); settings: read-out: %Inh IKK-epsilon
T1 sequence (Q14164 1-716): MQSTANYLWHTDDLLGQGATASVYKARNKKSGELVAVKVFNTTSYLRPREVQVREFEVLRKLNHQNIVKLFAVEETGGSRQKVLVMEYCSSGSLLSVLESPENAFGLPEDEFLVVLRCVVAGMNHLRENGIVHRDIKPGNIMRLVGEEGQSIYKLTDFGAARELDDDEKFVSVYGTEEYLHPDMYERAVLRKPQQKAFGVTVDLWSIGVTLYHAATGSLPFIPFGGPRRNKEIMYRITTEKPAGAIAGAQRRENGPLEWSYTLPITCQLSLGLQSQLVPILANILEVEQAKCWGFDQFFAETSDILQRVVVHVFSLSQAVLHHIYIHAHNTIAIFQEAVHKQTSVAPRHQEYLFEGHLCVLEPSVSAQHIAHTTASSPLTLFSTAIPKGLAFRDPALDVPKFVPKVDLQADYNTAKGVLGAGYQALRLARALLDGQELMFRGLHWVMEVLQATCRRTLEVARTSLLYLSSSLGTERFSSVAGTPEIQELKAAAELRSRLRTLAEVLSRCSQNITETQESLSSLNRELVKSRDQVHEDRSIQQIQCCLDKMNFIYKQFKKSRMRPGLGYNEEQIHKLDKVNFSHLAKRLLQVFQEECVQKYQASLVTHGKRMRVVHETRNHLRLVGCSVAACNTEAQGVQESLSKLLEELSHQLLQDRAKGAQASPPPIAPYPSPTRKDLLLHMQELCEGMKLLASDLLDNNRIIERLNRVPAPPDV

[3] = target: ERBB4 (Homo sapiens, UniProt Q15303); settings: read-out: %Inh ERBB4
Chain of ERBB4 (Q15303 26-1308): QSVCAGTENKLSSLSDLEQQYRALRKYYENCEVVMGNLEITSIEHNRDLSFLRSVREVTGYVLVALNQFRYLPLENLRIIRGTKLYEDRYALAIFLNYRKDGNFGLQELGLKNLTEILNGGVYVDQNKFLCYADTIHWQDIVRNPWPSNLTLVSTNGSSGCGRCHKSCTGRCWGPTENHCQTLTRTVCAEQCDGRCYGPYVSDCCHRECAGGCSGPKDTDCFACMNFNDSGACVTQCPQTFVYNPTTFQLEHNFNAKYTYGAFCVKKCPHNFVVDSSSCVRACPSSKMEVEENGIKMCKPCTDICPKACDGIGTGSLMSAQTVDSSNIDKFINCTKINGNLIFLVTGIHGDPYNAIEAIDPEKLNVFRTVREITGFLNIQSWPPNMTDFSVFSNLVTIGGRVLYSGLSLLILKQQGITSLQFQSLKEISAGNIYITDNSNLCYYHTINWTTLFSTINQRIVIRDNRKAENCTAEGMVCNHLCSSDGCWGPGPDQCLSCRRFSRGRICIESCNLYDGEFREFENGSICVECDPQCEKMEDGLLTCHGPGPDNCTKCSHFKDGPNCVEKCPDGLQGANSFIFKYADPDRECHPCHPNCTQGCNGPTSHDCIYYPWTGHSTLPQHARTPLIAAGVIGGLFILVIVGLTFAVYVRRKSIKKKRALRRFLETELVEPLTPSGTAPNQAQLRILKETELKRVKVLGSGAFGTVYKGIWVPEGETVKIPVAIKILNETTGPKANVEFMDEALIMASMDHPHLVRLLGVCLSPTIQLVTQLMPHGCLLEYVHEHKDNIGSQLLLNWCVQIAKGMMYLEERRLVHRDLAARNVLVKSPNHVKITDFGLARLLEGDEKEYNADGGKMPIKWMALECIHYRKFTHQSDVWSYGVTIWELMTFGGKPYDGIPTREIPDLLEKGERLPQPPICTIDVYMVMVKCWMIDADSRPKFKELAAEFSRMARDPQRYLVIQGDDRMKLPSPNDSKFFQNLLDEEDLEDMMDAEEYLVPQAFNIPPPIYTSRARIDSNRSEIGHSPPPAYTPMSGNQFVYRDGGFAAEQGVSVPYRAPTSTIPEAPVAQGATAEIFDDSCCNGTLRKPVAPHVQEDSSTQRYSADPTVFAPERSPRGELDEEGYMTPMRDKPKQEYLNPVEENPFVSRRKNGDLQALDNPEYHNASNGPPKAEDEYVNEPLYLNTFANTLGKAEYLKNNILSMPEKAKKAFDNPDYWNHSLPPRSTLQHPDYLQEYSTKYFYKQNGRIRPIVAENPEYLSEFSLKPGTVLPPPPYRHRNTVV

[4] = target: LIMK1 (Homo sapiens, UniProt P53667); settings: read-out: %Inh LIMK1
[5] = target: T2, DRAK1 (Homo sapiens, UniProt Q9UEE5); settings: read-out: %Inh DRAK1
T2 sequence (Q9UEE5 1-414): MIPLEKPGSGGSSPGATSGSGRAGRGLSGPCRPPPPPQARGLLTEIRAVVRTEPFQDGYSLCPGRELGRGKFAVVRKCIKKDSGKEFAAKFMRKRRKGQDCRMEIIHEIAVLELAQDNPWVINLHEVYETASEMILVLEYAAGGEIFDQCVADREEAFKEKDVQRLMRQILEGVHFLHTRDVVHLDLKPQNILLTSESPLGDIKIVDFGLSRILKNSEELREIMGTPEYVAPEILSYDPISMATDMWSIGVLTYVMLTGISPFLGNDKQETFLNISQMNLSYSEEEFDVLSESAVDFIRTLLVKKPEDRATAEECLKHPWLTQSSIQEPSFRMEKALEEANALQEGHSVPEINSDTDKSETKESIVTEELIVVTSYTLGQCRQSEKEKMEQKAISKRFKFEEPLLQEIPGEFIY

[6] = target: ERK2 (Homo sapiens, UniProt P28482); settings: read-out: %Inh ERK2
Chain of ERK2 (P28482 whole entry): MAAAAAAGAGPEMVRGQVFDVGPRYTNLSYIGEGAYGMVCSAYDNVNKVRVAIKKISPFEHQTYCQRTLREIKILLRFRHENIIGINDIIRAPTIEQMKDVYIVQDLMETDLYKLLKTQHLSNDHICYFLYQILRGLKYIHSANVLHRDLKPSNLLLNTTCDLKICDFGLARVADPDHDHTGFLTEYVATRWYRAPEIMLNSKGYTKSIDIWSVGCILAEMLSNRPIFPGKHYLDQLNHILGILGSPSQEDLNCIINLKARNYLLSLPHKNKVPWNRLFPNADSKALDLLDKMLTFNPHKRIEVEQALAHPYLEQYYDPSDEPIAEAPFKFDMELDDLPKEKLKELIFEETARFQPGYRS

[7] = target: CDC2L5 (Homo sapiens, UniProt Q14004); settings: read-out: %Inh CDC2L5
Chain of CDC2L5 (Q14004 whole entry): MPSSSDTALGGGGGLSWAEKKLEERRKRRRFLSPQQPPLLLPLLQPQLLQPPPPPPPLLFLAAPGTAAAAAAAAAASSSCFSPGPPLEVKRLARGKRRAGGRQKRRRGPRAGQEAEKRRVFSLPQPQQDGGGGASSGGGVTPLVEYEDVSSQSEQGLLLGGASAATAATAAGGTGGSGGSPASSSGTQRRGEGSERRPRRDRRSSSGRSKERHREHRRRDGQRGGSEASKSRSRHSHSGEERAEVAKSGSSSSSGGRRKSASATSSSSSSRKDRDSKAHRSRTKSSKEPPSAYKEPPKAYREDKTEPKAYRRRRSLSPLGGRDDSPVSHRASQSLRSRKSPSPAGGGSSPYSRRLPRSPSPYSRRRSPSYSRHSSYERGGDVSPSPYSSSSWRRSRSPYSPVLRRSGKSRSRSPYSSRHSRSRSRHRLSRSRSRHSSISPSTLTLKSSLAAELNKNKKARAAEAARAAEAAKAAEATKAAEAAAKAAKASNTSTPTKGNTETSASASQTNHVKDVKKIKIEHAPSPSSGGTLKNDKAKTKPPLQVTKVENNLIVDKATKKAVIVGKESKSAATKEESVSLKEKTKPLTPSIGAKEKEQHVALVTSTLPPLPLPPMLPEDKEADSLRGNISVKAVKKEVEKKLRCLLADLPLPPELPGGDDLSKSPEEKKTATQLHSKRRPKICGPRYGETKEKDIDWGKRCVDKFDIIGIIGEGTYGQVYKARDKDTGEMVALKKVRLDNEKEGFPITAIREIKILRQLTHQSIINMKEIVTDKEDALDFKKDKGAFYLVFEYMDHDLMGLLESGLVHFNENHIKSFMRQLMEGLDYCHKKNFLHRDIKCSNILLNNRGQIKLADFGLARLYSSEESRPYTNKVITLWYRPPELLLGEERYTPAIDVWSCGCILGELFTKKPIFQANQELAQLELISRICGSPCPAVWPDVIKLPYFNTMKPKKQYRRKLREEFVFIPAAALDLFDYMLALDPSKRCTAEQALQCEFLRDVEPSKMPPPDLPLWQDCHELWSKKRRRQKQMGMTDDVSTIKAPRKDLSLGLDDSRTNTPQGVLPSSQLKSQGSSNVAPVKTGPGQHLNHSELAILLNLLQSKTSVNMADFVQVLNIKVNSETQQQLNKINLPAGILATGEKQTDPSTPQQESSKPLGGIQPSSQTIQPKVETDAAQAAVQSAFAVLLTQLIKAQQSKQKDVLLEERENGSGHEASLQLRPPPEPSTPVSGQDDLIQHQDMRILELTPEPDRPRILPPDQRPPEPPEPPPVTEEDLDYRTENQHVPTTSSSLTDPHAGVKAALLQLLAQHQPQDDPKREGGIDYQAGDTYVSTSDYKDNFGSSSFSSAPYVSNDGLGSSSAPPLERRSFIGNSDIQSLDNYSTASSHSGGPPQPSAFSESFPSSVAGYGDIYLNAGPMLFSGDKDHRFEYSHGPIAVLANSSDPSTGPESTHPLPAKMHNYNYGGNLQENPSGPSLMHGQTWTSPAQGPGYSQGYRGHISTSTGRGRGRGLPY

[8] = target: INSRR (Homo sapiens, UniProt P14616); settings: read-out: %Inh INSRR
[9] = target: T3, GRK1 (Homo sapiens, UniProt Q15835); settings: read-out: %Inh GRK1
T3 sequence (Q15835 1-563): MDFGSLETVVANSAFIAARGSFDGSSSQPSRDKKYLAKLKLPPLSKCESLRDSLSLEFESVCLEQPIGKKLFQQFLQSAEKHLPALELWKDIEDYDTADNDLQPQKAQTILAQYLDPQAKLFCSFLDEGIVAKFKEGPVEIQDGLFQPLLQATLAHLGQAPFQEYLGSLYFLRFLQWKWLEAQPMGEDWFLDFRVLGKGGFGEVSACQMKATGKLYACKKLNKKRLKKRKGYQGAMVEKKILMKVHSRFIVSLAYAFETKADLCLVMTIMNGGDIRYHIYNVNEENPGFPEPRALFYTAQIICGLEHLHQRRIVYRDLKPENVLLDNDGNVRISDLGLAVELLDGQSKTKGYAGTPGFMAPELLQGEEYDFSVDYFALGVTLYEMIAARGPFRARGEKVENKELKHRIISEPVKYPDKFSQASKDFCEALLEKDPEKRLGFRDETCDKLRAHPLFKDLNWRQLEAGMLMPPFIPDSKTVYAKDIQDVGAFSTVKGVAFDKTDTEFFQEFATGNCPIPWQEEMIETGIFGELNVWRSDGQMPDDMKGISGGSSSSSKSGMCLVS

[10] = target: HIPK1 (Homo sapiens, UniProt Q86Z02); settings: read-out: %Inh HIPK1
Chain of HIPK1 (Q86Z02 whole entry): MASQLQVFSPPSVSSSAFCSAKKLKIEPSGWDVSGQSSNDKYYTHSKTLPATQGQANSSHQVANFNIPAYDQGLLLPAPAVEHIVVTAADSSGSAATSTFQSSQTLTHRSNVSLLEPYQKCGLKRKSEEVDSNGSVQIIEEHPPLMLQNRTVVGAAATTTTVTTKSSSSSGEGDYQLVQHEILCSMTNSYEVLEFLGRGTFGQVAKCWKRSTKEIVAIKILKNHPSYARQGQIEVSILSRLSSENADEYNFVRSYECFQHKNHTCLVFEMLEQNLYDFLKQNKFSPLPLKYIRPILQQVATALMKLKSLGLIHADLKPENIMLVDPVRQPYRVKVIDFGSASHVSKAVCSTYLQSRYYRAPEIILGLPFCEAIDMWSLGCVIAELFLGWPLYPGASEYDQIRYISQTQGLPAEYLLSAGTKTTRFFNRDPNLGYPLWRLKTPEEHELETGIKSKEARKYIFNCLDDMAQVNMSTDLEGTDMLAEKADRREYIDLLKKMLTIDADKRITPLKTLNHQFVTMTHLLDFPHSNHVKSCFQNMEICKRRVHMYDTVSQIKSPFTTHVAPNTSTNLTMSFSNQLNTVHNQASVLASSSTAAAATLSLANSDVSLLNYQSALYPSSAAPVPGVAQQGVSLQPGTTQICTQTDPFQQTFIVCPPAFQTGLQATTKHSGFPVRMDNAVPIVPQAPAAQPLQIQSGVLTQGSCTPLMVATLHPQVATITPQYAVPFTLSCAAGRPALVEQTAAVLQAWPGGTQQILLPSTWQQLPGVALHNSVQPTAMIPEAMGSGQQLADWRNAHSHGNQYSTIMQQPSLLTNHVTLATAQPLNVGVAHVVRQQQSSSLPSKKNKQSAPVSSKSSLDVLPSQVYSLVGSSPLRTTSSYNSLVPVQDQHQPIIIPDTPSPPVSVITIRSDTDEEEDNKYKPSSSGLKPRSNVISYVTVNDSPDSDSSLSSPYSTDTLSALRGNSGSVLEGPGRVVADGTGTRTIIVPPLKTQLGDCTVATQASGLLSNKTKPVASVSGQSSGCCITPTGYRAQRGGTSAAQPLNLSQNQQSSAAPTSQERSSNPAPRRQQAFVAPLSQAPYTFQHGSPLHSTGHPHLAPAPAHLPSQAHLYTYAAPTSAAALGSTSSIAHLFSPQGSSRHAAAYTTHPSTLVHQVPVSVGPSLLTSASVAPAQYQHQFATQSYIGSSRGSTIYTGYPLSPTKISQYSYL

[11] = target: DYRK1A (Homo sapiens, UniProt Q13627); settings: read-out: %Inh DYRK1A
[12] = target: T4, CSF1R-autoinhibited (Homo sapiens, UniProt P07333); settings: read-out: %Inh CSF1R-autoinhibited
T4 sequence (P07333 539-972 limits assumed): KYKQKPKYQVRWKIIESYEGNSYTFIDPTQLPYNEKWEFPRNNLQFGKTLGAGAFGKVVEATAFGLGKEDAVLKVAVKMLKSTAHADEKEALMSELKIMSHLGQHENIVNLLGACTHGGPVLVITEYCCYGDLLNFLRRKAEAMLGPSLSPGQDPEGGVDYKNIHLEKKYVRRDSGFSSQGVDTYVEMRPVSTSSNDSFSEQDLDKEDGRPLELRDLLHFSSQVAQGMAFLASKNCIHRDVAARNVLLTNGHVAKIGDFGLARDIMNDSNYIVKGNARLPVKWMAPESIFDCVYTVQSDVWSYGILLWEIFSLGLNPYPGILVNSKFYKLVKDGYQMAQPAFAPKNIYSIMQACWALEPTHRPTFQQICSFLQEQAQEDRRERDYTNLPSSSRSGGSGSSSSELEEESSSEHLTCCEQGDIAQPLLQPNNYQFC

Chain of LCK (P06239 whole entry): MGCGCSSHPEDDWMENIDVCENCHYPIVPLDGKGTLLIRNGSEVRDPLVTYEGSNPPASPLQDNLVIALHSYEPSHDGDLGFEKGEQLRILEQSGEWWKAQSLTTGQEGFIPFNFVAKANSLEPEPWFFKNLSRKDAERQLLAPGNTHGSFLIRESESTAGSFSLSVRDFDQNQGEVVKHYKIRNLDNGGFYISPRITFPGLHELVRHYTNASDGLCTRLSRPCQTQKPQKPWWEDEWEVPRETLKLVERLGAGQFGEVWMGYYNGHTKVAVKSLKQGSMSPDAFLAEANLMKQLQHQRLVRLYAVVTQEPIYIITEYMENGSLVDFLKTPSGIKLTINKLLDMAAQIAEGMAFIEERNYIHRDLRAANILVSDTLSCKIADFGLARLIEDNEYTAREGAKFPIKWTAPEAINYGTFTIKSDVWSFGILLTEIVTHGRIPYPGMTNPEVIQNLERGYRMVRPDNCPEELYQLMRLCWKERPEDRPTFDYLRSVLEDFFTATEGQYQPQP

COc1cccc(OC)c1C(=O)Nc1cccc(-c2nn3ccccc3c2-c2ccnc(Nc3cccc(F)c3)n2)c1 [UNC10225310A] gave an inhibition at 1 µM [1] of 24%, an inhibition at 1 µM [2] of 4% and an inhibition at 1 µM [3] of 84%. For the same compound, the inhibition at 1 µM [4] was 31%, the inhibition at 1 µM [5] was 12% and the inhibition at 1 µM [6] was 6%. The inhibition at 1 µM [7] was 1%, the inhibition at 1 µM [8] was 0% and the inhibition at 1 µM [9] was 0%. It also gave an inhibition at 1 µM [10] of 31%, an inhibition at 1 µM [11] of 0% and an inhibition at 1 µM [12] of 4%.

In the case of Cc1ccc(NC(=O)Nc2cccc(C(F)(F)F)c2)cc1 [UNC10225187A], the inhibition at 1 µM [1] is reported as 6%, the inhibition at 1 µM [2] is reported as 0% and the inhibition at 1 µM [3] is reported as 0%. For the same compound, the inhibition at 1 µM [4] was 0%, the inhibition at 1 µM [5] was 15% and the inhibition at 1 µM [6] was 0%. The inhibition at 1 µM [7] was 0%, the inhibition at 1 µM [8] was 0% and the inhibition at 1 µM [9] was 2%. It also gave an inhibition at 1 µM [10] of 8%, an inhibition at 1 µM [11] of 0% and an inhibition at 1 µM [12] of 0%.

Work on O=c1cc(N2CCOCC2)nc2n(Cc3cccc(Cl)c3Cl)c(C3CC3)nn12 [UNC10225469A] yielded an inhibition at 1 µM [1] of 23%, an inhibition at 1 µM [2] of 0% and an inhibition at 1 µM [3] of 0%. For the same compound, the inhibition at 1 µM [4] was 9%, the inhibition at 1 µM [5] was 11% and the inhibition at 1 µM [6] was 11%. It also gave an inhibition at 1 µM [7] of 0%, an inhibition at 1 µM [8] of 0% and an inhibition at 1 µM [9] of 0%. It also gave an inhibition at 1 µM [10] of 16%, an inhibition at 1 µM [11] of 2% and an inhibition at 1 µM [12] of 0%.

In the case of CS(=O)(=O)Cc1ccc(Nc2nccc(-c3c(-c4cccc(NC(=O)C5CCCCC5)c4)nn4ncccc34)n2)cc1 [UNC10225159A], the inhibition at 1 µM [1] is reported as 23%, the inhibition at 1 µM [2] is reported as 32% and the inhibition at 1 µM [3] is reported as 74%. The inhibition at 1 µM [4] was 22%, the inhibition at 1 µM [5] was 0% and the inhibition at 1 µM [6] was 0%. It also gave an inhibition at 1 µM [7] of 30%, an inhibition at 1 µM [8] of 20% and an inhibition at 1 µM [9] of 0%. For the same compound, the inhibition at 1 µM [10] was 5%, the inhibition at 1 µM [11] was 26% and the inhibition at 1 µM [12] was 35%.

In the case of Cn1cc(-c2cnc(N)c3c(-c4ccc5c(c4)CCN5C(=O)Cc4ccccc4)csc23)cn1 [UNC10225012A], the inhibition at 1 µM [1] is reported as 93.8%, the inhibition at 1 µM [2] is reported as 59% and the inhibition at 1 µM [3] is reported as 0%. It also gave an inhibition at 1 µM [4] of 49%, an inhibition at 1 µM [5] of 0% and an inhibition at 1 µM [6] of 0%. It also gave an inhibition at 1 µM [7] of 0%, an inhibition at 1 µM [8] of 13% and an inhibition at 1 µM [9] of 0%. The inhibition at 1 µM [10] was 21%, the inhibition at 1 µM [11] was 0% and the inhibition at 1 µM [12] was 39%.
